Experimental data taken from patent publication US20250025482A1, “USE OF C[…] THE TREATMENT OF EPILEPSY” (GW Research Limited, priority 2021, published 2025).

Assays:
Format in all cases: in vivo, human (patients)
[1] = system: Patients aged 1-2 years old with Dravet Syndrome (DS); experiment: Expanded access treatment with highly purified CBD extract, seizure frequency, Patient 1 (Dravet Syndrome); set-up: key to Seizure frequency, Clonic / Seizure frequency, Tonic-clonic / Seizure frequency, Focal with impairment: number of seizures per day; conditions: for Seizure frequency, Focal with impairment / Seizure frequency, Tonic-clonic: baseline 3.0; for Seizure frequency, Clonic: baseline 4.0
Protocol: (§1) Example 1 below describes the use of a highly purified cannabis extract comprising cannabidiol (CBD) in an expanded access treatment program in children with TRE.
(§2) Patients aged 1-2 years old with Dravet Syndrome (DS), Lennox-Gastaut Syndrome (LGS), or Tuberous Sclerosis Complex (TSC) were administered a highly purified extract of cannabidiol (CBD) obtained from a cannabis plant […].
(§3) The highly purified CBD extract (greater than 98% CBD w/w) was administered in a formulation described herein at a starting dose of 5 mg/kg/day in addition to their baseline anti-epileptic drug (AED) regimen.
(§4) The starting dose of the patients was increased from 5 mg/kg/day to 10 mg/kg/day after one week of administering the first dose of CBD.
(§5) All patients were taking at least two concomitant anti-epileptic drugs. These included clobazam; levetiracetam; topiramate; vigabatrin; phenobarbital; and lacosamide.
(§6) Prior to treatment with CBD, the number of seizures for each patient at baseline was recorded. During the course of treatment, the number of seizures that each patient experienced per day was recorded. Table 9 provides information on the demographics, seizure type, and concomitant anti-epileptic drugs (AED) for each patient that was administered the highly purified extract of CBD.

[2] = system: Patients aged 1-2 years old with Lennox-Gastaut Syndrome (LGS); experiment: Expanded access treatment with highly purified CBD extract, seizure frequency, Patient 2 (Lennox-Gastaut Syndrome); set-up: key to Seizure frequency, Clonic / Seizure frequency, Tonic / Seizure frequency, Atonic / Seizure frequency, Absence: number of seizures per day; conditions: for Seizure frequency, Tonic: baseline 4.0; for Seizure frequency, Absence: baseline 120.0; for Seizure frequency, Clonic: baseline 200.0; for Seizure frequency, Atonic: baseline 300.0
Protocol: as §1, §2, §3, §4, §5, §6

[3] = system: Patients aged 1-2 years old with Tuberous Sclerosis Complex (TSC); experiment: Expanded access treatment with highly purified CBD extract, seizure frequency, Patient 3 (Tuberous Sclerosis Complex); set-up: key to Seizure frequency, Focal with impairment / Seizure frequency, Focal without impairment: number of seizures per day; conditions: for Seizure frequency, Focal without impairment / Seizure frequency, Focal with impairment / Seizure frequency, Focal with secondary generalisation: Patient 3, Tuberous Sclerosis; for Seizure frequency, Focal without impairment: baseline 0.0; for Seizure frequency, Focal with impairment: baseline 25.4; for Seizure frequency, Focal with secondary generalisation: baseline 63.0
Protocol: as §1, §2, §3, §4, §5, §6

seizures in patients = experiment: Onset of effect of seizure reduction during CBD titration; conditions: patients receiving 5 mg/kg/day; e.g., at 2, 3, 4, 5, or 6 days
[4] = Patient 1, Dravet Syndrome, 2 weeks, dose CBD 11.7 mg/kg/day
[5] = Patient 1, Dravet Syndrome, 4 weeks, dose CBD 19.2 mg/kg/day
[6] = Patient 1, Dravet Syndrome, 8 weeks, dose CBD 24.3 mg/kg/day
[7] = Patient 1, Dravet Syndrome, 16 weeks, dose CBD 25.4 mg/kg/day
[8] = Patient 1, Dravet Syndrome, 24 weeks, dose CBD 24.8 mg/kg/day
[9] = Patient 1, Dravet Syndrome, 36 weeks, dose CBD 23.0 mg/kg/day
[10] = Patient 1, Dravet Syndrome, 48 weeks, dose CBD 22.6 mg/kg/day
[11] = Patient 1, Dravet Syndrome, over the treatment period
[12] = Patient 2, Lennox-Gastaut Syndrome, 4 weeks, dose CBD 25.0 mg/kg/day
[13] = Patient 2, Lennox-Gastaut Syndrome, 8 weeks, dose CBD 50.0 mg/kg/day
[14] = Patient 2, Lennox-Gastaut Syndrome, 12 weeks, dose CBD 49.6 mg/kg/day
[15] = Patient 2, Lennox-Gastaut Syndrome, 24 weeks, dose CBD 49.0 mg/kg/day
[16] = Patient 2, Lennox-Gastaut Syndrome, 36 weeks, dose CBD 48.6 mg/kg/day
[17] = Patient 2, Lennox-Gastaut Syndrome, 60 weeks, dose CBD 3.7 mg/kg/day
[18] = Patient 2, Lennox-Gastaut Syndrome, 72 weeks, dose CBD 50.0 mg/kg/day
[19] = Patient 2, Lennox-Gastaut Syndrome, over the treatment period
[20] = Patient 3, Tuberous Sclerosis Complex, over the treatment period
[21] = 2 weeks, dose CBD 10.0 mg/kg/day
[22] = 4 weeks, dose CBD 20.0 mg/kg/day
[23] = 8 weeks, dose CBD 15.0 mg/kg/day
[24] = 16 weeks, dose CBD 15.0 mg/kg/day
[25] = 24 weeks, dose CBD 13.0 mg/kg/day
[26] = 36 weeks, dose CBD 13.0 mg/kg/day
[27] = 48 weeks, dose CBD 13.0 mg/kg/day
[28] = 60 weeks, dose CBD 11.5 mg/kg/day
[29] = 84 weeks, dose CBD 27.0 mg/kg/day
[30] = 96 weeks, dose CBD 22.0 mg/kg/day
[31] = 108 weeks, dose CBD 13.0 mg/kg/day
[32] = 120 weeks, dose CBD 29.0 mg/kg/day
[33] = 144 weeks, dose CBD 35.0 mg/kg/day

In the case of `C=C(C)[C@@H]1CCC(C)=C[C@H]1c1c(O)cc(CCCCC)cc1O` [CBD, Cannabidiol], the “relief from clonic seizures after treatment” value ([1]; Patient 1) is reported as “complete relief”, the “relief from focal seizures with impairment after treatment” value ([1]; Patient 1) is reported as “complete relief” and the “Seizure frequency, Focal with impairment” value [1, 4] is reported as 0.0. The “Seizure frequency, Tonic-clonic” value [1, 4] was 4.0, the “Seizure frequency, Clonic” value [1, 4] was 6.0 and the “Seizure frequency, Focal with impairment” value [1, 5] was 0.0. For the same compound, the “Seizure frequency, Tonic-clonic” value [1, 5] was 2.0, the “Seizure frequency, Clonic” value [1, 5] was 4.0 and the “Seizure frequency, Focal with impairment” value [1, 6] was 0.0. For the same compound, the “Seizure frequency, Tonic-clonic” value [1, 6] was 0.0, the “Seizure frequency, Clonic” value [1, 6] was 2.0 and the “Seizure frequency, Focal with impairment” value [1, 7] was 0.0. For the same compound, the “Seizure frequency, Tonic-clonic” value [1, 7] was 0.0, the “Seizure frequency, Clonic” value [1, 7] was 2.6 and the “Seizure frequency, Focal with impairment” value [1, 8] was 0.0. For the same compound, the “Seizure frequency, Tonic-clonic” value [1, 8] was 1.6, the “Seizure frequency, Clonic” value [1, 8] was 0.8 and the “Seizure frequency, Focal with impairment” value [1, 9] was 0.0. The “Seizure frequency, Tonic-clonic” value [1, 9] was 6.9, the “Seizure frequency, Clonic” value [1, 9] was 0.0 and the “Seizure frequency, Focal with impairment” value [1, 10] was 0.0. For the same compound, the “Seizure frequency, Tonic-clonic” value [1, 10] was 6.5, the “Seizure frequency, Clonic” value [1, 10] was 0.0 and the “reduction in clonic seizures” value [1, 11] was 100%. The “reduction in focal seizures with impairment” value [1, 11] was 100%, the “relief from clonic seizures after treatment” value ([2]; Patient 2) was “complete relief” and the “Seizure frequency, Tonic” value [2, 12] was 116.0. The “Seizure frequency, Absence” value [2, 12] was 116.0, the “Seizure frequency, Clonic” value [2, 12] was 64.0 and the “Seizure frequency, Atonic” value [2, 12] was 388.0. The “Seizure frequency, Tonic” value [2, 13] was 48.0, the “Seizure frequency, Absence” value [2, 13] was 78.0 and the “Seizure frequency, Clonic” value [2, 13] was 40.0. The “Seizure frequency, Atonic” value [2, 13] was 564.0, the “Seizure frequency, Tonic” value [2, 14] was 116.0 and the “Seizure frequency, Absence” value [2, 14] was 140.0. For the same compound, the “Seizure frequency, Clonic” value [2, 14] was 40.0, the “Seizure frequency, Atonic” value [2, 14] was 300.0 and the “Seizure frequency, Tonic” value [2, 15] was 116.0. The “Seizure frequency, Absence” value [2, 15] was 140.0, the “Seizure frequency, Clonic” value [2, 15] was 40.0 and the “Seizure frequency, Atonic” value [2, 15] was 280.0. The “Seizure frequency, Tonic” value [2, 16] was 116.0, the “Seizure frequency, Absence” value [2, 16] was 140.0 and the “Seizure frequency, Clonic” value [2, 16] was 40.0. For the same compound, the “Seizure frequency, Atonic” value [2, 16] was 280.0, the “Seizure frequency, Tonic” value [2, 17] was 1.0 and the “Seizure frequency, Absence” value [2, 17] was 40.0. The “Seizure frequency, Clonic” value [2, 17] was 0.0, the “Seizure frequency, Atonic” value [2, 17] was 1.0 and the “Seizure frequency, Tonic” value [2, 18] was 20.0. The “Seizure frequency, Absence” value [2, 18] was 0.0, the “Seizure frequency, Clonic” value [2, 18] was 0.0 and the “Seizure frequency, Atonic” value [2, 18] was 0.0. The “reduction in absence seizures” value [2, 19] was 100%, the “reduction in atonic seizures” value [2, 19] was 100% and the “reduction in clonic seizures” value [2, 19] was 100%. The “relief from focal seizures with impairment after treatment” value ([3]; Patient 3) was “complete relief”, the “reduction in focal seizures with impairment” value [3, 20] was 100% and the “reduction in focal seizures with secondary generalisation” value [3, 20] was 100%. The “Seizure frequency, Focal without impairment” value [3, 21] was 0.0, the “Seizure frequency, Focal with impairment” value [3, 21] was 20.0 and the “Seizure frequency, Focal with secondary generalisation” value [3, 21] was 50.0. The “Seizure frequency, Focal without impairment” value [3, 22] was 0.0, the “Seizure frequency, Focal with impairment” value [3, 22] was 22.0 and the “Seizure frequency, Focal with secondary generalisation” value [3, 22] was 61.0. The “Seizure frequency, Focal without impairment” value [3, 23] was 0.0, the “Seizure frequency, Focal with impairment” value [3, 23] was 15.4 and the “Seizure frequency, Focal with secondary generalisation” value [3, 23] was 109.1. For the same compound, the “Seizure frequency, Focal without impairment” value [3, 24] was 0.0, the “Seizure frequency, Focal with impairment” value [3, 24] was 0.6 and the “Seizure frequency, Focal with secondary generalisation” value [3, 24] was 46.2. For the same compound, the “Seizure frequency, Focal without impairment” value [3, 25] was 0.0, the “Seizure frequency, Focal with impairment” value [3, 25] was 0.0 and the “Seizure frequency, Focal with secondary generalisation” value [3, 25] was 58.1. The “Seizure frequency, Focal without impairment” value [3, 26] was 0.0, the “Seizure frequency, Focal with impairment” value [3, 26] was 0.0 and the “Seizure frequency, Focal with secondary generalisation” value [3, 26] was 0.0. The “Seizure frequency, Focal without impairment” value [3, 27] was 0.0, the “Seizure frequency, Focal with impairment” value [3, 27] was 0.0 and the “Seizure frequency, Focal with secondary generalisation” value [3, 27] was 14.8. The “Seizure frequency, Focal without impairment” value [3, 28] was 0.0, the “Seizure frequency, Focal with impairment” value [3, 28] was 71.3 and the “Seizure frequency, Focal with secondary generalisation” value [3, 28] was 0.0. The “Seizure frequency, Focal without impairment” value [3, 29] was 0.0, the “Seizure frequency, Focal with impairment” value [3, 29] was 62.5 and the “Seizure frequency, Focal with secondary generalisation” value [3, 29] was 0.0. For the same compound, the “Seizure frequency, Focal without impairment” value [3, 30] was 0.0, the “Seizure frequency, Focal with impairment” value [3, 30] was 14.8 and the “Seizure frequency, Focal with secondary generalisation” value [3, 30] was 0.0. The “Seizure frequency, Focal without impairment” value [3, 31] was 10.8, the “Seizure frequency, Focal with impairment” value [3, 31] was 0.3 and the “Seizure frequency, Focal with secondary generalisation” value [3, 31] was 0.0. The “Seizure frequency, Focal without impairment” value [3, 32] was 11.4, the “Seizure frequency, Focal with impairment” value [3, 32] was 0.0 and the “Seizure frequency, Focal with secondary generalisation” value [3, 32] was 0.0. For the same compound, the “Seizure frequency, Focal without impairment” value [3, 33] was 9.8, the “Seizure frequency, Focal with impairment” value [3, 33] was 0.0 and the “Seizure frequency, Focal with secondary generalisation” value [3, 33] was 0.0. For the same compound, the “onset of effect of seizure reduction” value (seizures in patients) was “within one week”.
